The results in this text go back to ChEMBL document CHEMBL1132879, “High potent and selective arylpiperazine derivatives as ligands for the 5-HT1A receptor” (Bioorg Med Chem Lett, 2000).

The target of assay [1] is T1, Adrenergic receptor alpha-1 (Rattus norvegicus, UniProt P15823+P23944+P43140).
T1 sequence (P15823 whole entry): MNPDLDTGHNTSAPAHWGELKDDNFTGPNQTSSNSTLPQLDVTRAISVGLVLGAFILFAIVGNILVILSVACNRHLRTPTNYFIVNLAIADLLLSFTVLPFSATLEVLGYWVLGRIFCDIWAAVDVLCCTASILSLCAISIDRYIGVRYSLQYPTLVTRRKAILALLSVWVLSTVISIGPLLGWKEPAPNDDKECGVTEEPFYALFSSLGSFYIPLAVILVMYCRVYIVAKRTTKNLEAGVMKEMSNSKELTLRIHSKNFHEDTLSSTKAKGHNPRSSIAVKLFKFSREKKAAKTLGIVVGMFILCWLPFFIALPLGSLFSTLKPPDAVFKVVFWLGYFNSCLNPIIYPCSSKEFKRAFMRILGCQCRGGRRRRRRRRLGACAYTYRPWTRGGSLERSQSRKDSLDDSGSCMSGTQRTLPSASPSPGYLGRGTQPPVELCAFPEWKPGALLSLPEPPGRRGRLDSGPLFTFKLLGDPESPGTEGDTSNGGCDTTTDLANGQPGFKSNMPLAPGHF
T1 sequence (P23944 whole entry): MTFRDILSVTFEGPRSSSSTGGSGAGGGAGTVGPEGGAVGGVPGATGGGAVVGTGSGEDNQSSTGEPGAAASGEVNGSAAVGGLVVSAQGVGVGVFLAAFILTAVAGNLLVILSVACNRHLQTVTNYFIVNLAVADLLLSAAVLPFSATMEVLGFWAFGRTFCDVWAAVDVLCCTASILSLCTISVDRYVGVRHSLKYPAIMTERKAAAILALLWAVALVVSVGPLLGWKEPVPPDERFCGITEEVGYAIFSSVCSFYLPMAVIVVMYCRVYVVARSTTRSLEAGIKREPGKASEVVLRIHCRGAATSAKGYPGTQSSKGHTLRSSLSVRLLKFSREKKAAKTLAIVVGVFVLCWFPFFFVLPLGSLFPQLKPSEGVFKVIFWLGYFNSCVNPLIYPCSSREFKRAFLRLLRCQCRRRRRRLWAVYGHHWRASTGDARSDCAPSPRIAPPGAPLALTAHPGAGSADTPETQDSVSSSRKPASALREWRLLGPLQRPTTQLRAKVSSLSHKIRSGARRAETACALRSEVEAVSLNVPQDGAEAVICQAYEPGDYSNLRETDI
T1 sequence (P43140 whole entry): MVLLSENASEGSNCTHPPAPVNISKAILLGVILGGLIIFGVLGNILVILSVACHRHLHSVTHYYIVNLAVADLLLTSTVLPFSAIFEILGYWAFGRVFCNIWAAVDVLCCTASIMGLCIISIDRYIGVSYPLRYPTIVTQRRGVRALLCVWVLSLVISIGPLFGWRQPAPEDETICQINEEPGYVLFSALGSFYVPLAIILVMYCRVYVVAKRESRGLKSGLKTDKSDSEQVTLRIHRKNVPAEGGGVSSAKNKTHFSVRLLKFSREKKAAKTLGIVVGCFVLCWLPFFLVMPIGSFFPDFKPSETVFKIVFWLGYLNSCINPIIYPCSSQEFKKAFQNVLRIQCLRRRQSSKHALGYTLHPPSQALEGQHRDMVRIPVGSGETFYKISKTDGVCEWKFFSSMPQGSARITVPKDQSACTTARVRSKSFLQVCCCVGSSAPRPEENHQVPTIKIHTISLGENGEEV
The assay can be described thus: Displacement of [3H]prazosin from Alpha-1 adrenergic receptor of rat cortex membranes. Type of assay: cell membranes, Membrane. On the technique in general: Displacement assays read how much labelled ligand stays bound in the presence of the test substance.

For assay [2], the target named is Serotonin 1a (5-HT1a) receptor/Adrenergic receptor alpha-1 (Rattus norvegicus) (UniProt P15823+P23944+P43140+P19327). Put plainly: Selectivity for 5-HT1A serotonin over alpha-1-adrenergic receptors. Type of assay: protein assay.
The target of assay [3] is T2, 5-hydroxytryptamine receptor 1A (Rattus norvegicus, UniProt P19327).
T2 sequence (P19327 whole entry): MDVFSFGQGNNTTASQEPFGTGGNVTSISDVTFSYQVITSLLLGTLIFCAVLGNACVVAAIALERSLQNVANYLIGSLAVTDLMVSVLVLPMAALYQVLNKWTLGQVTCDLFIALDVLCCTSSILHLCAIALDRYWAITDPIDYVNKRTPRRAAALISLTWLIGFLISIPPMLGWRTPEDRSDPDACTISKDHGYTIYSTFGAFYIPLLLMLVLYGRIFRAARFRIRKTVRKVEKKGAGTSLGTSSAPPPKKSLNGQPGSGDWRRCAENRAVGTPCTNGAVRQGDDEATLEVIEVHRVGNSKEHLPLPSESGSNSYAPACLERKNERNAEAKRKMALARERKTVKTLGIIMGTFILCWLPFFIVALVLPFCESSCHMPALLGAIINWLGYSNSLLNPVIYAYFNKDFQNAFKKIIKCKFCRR
Put plainly: Displacement of [3H]8-OH-DPAT from 5-hydroxytryptamine 1A receptor of rat hippocampus membranes. Type of assay: cell membranes, Membrane.

By Ki is commonly meant a measure of affinity in units of concentration, obtained from inhibition or displacement. In the case of `Nn1c(SCCCN2CCN(c3ccccc3[N+](=O)[O-])CC2)nc2sccc2c1=O`, the Ki in assay [1] came out at 39.87 nM; in assay [3], 3 nM. The compound further had a Selectivity in assay [2] of 13.

As for `COc1ccccc1N1CCN(CCCSc2nc3sccc3c(=O)n2N)CC1`, the results for the Ki in assay [1] and in assay [3] were 2.48 nM and 0.65 nM, respectively. The compound also displayed a Selectivity in assay [2] of 3.8.

`Cc1sc2nc(SCCCN3CCN(c4ccccc4[N+](=O)[O-])CC3)n(N)c(=O)c2c1C`: the Ki worked out at 123 nM in assay [1] and 1.46 nM in assay [3]. For the same compound, in assay [2], the Selectivity came to 53.

Take `COc1ccccc1N1CCN(CCCSc2nc(N)c3c(C)c(C)sc3n2)CC1`: the inhibitory constant (Ki) is 10.8 nM in assay [1] and 2.45 nM in assay [3]. Besides, the Selectivity in assay [2] is 4.4.

For the compound `CCc1cc2c(=O)n(N)c(SCCCN3CCN(c4ccccc4[N+](=O)[O-])CC3)nc2s1`, the Ki in assay [1] is 194.8 nM; in assay [3] it was 9.69 nM. For the same compound, in assay [2], the Selectivity was 20.

With `COc1ccccc1N1CCN(CCCSc2nc3sc4c(c3c(=O)n2N)CCC4)CC1`, the Ki in assay [1] is 7.39 nM; in assay [3], 0.26 nM. Also, in assay [2], the Selectivity was 28.

Regarding `COc1ccccc1N1CCN(CCCSc2nc3sc(C)c(C)c3c(=O)n2N)CC1`, the Ki was found to be 6.26 nM in assay [1] and 0.16 nM in assay [3]. The Selectivity in assay [2] was found to be 39.

Regarding `CCCc1cc2c(=O)n(N)c(SCCCN3CCN(c4ccccc4OC)CC3)nc2s1`, the figures for the inhibitory constant (Ki) in assay [1] and in assay [3] were 19.65 nM and 1.4 nM, respectively. Besides, the Selectivity in assay [2] was determined as 14.

On to `Nn1c(SCCCN2CCN(c3ncccn3)CC2)nc2sccc2c1=O`, for which the values for the Ki in assay [1] and in assay [3] were 366.31 nM and 5.06 nM, respectively. For the same compound, the Selectivity in assay [2] turned out to be 73.

Consider `Cc1sc2nc(SCCCN3CCN(c4ncccn4)CC3)n(N)c(=O)c2c1C`, for which the Ki in assay [1] is 434 nM; in assay [3] it was 3.72 nM. The same compound returned a Selectivity in assay [2] of 117.

Consider `CCc1cc2c(=O)n(N)c(SCCCN3CCN(c4ccccc4OC)CC3)nc2s1`, for which the Ki in assay [1] is 21.96 nM; in assay [3] it was 0.19 nM. The Selectivity in assay [2] stood at 115.

As for `CCc1cc2c(=O)n(N)c(SCCCN3CCN(c4ncccn4)CC3)nc2s1`, the Ki in assay [1] is 1946 nM; in assay [3] it was 9.4 nM. In assay [2], this compound had a Selectivity of 207.

Turning to `CCOc1ccccc1-c1nnc(SCCCN2CCN(c3ccccc3OC)CC2)s1`, the Ki in assay [1] stood at 31.5 nM; in assay [3], 6.84 nM. The Selectivity in assay [2] turned out to be 4.6.

As for `CCOc1ccccc1-c1nnc(SCCCN2CCN(c3ccccc3[N+](=O)[O-])CC2)s1`, the Ki in assay [1] was determined as 437 nM; in assay [3], 135 nM. In assay [2], this compound returned a Selectivity of 3.
